Measurements as given in patent US20250351832A1, “PHYTOCHEMICALS AS BIOPESTICIDES AND BIOSTIMULANTS” (KAY BEE BIO ORGANICS PVT. LTD., priority 2024, published 2025).
Like-named read-outs stand apart in the source and are kept apart here.

What was measured:
Alternaria alternata [1] = assay: In vitro poisoned food technique against fungus (Ex. 20); format: cell-based; conditions: poisoned food technique, PDA medium, dose 1 ml/gm/lit., after seven days; for inhibition of growth at 1 mL or g/L: vs untreated control, read-out: % Inhibition of growth
Alternaria alternata [2] = assay: Alternaria leaf spot/blight on inoculated tomato plants (Ex. 28); format: in vivo; conditions: tomato plants, Alternaria alternata; after 7 days; dose 1 ml/gm/lit
tomato seedlings = assay: Response of tomato plants, greenhouse growth (Ex. 30); format: in vivo; conditions: tomato seedlings, dose 1 ml/gm/lit; for Plant Height 5th Day / Stem Girth 5th Day / CCI 5th Day: 5th day after application; for Plant Height 10th Day / Stem Girth 10th Day / CCI 10th Day: 10th day after application; for Plant Height % Increase over pre on 10th Day / Stem Girth % Increase over pre on 10th Day / CCI % Increase over pre on 10th Day / Root Length (cm) 10th Day / Root Length % Increase over control: 10th day; for Root Length % Increase over control: vs water control
chili seedlings = assay: Response of chili plants, greenhouse growth (Ex. 31); format: in vivo
Aphid [3] = system: Aphid
Mealy Bug [4] = system: Mealy Bug
Helicoverpa armigera [5] = system: Helicoverpa armigera
Spodoptera litura [6] = system: Spodoptera litura
Mealy Bug [7] = system: Mealy Bug; remark: listed apart in the source
Spodoptera litura [8] = conditions: in vivo
Thrips [9] = system: Thrips
[10] = cited from earlier work
Spodoptera litura [11] = assay: whole plant or invertebrate; conditions: 72 h
Thrips [12] = assay: whole plant or invertebrate; conditions: in Gossypium hirsutum, 48 h
Aphid [13] = assay: whole plant or invertebrate; conditions: 48 h
Mite [14] = conditions: Dose 1 ml/gm/lit.
Thrips [15] = conditions: Thrips on cotton leaves; dose 1 ml/gm/lit.; 10 insects/treatment; 48 hrs after application
Aphid [16] = conditions: Aphids on cotton plants, green house; dose 1 ml/gm/lit.; 10 insects/plant, 10 plants/treatment; 48 hrs
Mite [17] = conditions: mite on okra plants, green house, dose 1 ml/gm/lit. spray
Helicoverpa armigera [18] = conditions: Helicoverpa armigera 3rd instar on chickpea plants, dose 1 ml/gm/lit. spray
[19] = chili seedlings, dose 1 ml/gm/lit, 10th day
[20] = Table 13, descriptive, no test described
[21] = read-out: % Corrected Mortality at 72 Hrs.
[22] = read-out: % Mortality at 72 Hrs.
[23] = read-out: % Corrected Mortality at 48 Hrs.
[24] = read-out: % Mortality at 48 Hrs.
[25] = chili seedlings, dose 1 ml/gm/lit, 5th day after application
[26] = chili seedlings, dose 1 ml/gm/lit, 10th day after application
[27] = mealy bug on cotton plants, green house, dose 1 ml/gm/lit. spray, 48 hrs after application
[28] = thrips on cotton plants, greenhouse, dose 1 ml/gm/lit. spray, 48 hrs after application

CC(C)c1ccc(C=O)cc1 [Cuminaldehyde]
Mean colony Diameter (mm) (Alternaria alternata [1]): 51.50 mm
inhibition of growth at 1 mL or g/L (Alternaria alternata [1]): 41.5%
% Disease reduction over Control (Alternaria alternata [2]): 52.89%
Plant Height 5th Day (tomato seedlings): 6.62 cm
Stem Girth 5th Day (tomato seedlings): 1.77 mm
Plant Height 10th Day (tomato seedlings): 7.33 cm
Stem Girth 10th Day (tomato seedlings): 2.08 mm
Plant Height % Increase over pre on 10th Day (tomato seedlings): 31.36%
Stem Girth % Increase over pre on 10th Day (tomato seedlings): 64.12%
CCI 5th Day (tomato seedlings): 13.64
CCI % Increase over pre on 10th Day (tomato seedlings): 16.83%
Root Length (cm) 10th Day (tomato seedlings): 3.81 cm
CCI 10th Day (tomato seedlings): 14.65
Root Length % Increase over control (tomato seedlings): 14.59%
CCI Pre (chili seedlings): 10.29
Plant Height (cm) Pre (chili seedlings): 4.27 cm
CCI 5th Day (chili seedlings; 120 h): 12.10
Plant Height (cm) 5th Day (chili seedlings; 120 h): 5.77 cm
CCI 10th Day (chili seedlings; 240 h): 13.9
Plant Height (cm) 10th Day (chili seedlings; 240 h): 6.40 cm
Root Lenght % Increase over control (chili seedlings; 240 h): 13.94%
CCI % Increase over pre on 10th Day (chili seedlings; [19]): 35.08%
Plant Height % Increase over pre on 10th Day (chili seedlings; [19]): 50.00%
Root Lenght (cm) 10th Day (chili seedlings; [19]): 3.12 cm
Stem Girth % Increase over pre on 10th Day (chili seedlings; [19]): 40.41%
% Corrected Mortality at 48 Hrs. (Aphid [3]; in vivo): 45.71%
% Mortality at 48 Hrs. (Aphid [3]; in vivo): 52.50%
% Corrected Mortality at 48 Hrs. (Mealy Bug [4]; in vivo): 50.00%
Total No. of dead insect at 72 Hrs. (Helicoverpa armigera [5]; in vivo): 3.75
Total No. of dead insect at 72 Hrs. (Spodoptera litura [6]; in vivo): 5.25
% Corrected Mortality at 48 Hrs. (Mealy Bug [7]; in vivo): 50.00%
% Corrected Mortality at 72 Hrs. (Spodoptera litura [8]): 52.63%
% Mortality at 72 Hrs. (Spodoptera litura [8]): 55.00%
% Corrected Mortality at 48 Hrs. (Thrips [9]; in vivo): 33.33%
% Mortality at 48 Hrs. (Thrips [9]; in vivo): 40.00%
Antifungal Activity - Mode of action [10, 20]: Mycelial growth inhibition
Antioxidant Activity - Mode of action [10, 20]: Increase in reactive oxygen
Bactericidal Activity - Mode of action [10, 20]: Great antimicrobial effects
Insecticidal Activities - Mode of action [10, 20]: Acute Toxicity Effects
Nematicidal Activity - Mode of action [10, 20]: Efficient hatching inhibitor
Phytotonic Effect ([10]; Table 13, effect on plants, descriptive): Boost plant
mortality at 1 mL or g/L (Spodoptera litura [11]; [21]): 50%
mortality at 1 mL or g/L (Spodoptera litura [11]; [22]): 52.5%
mortality at 1 mL or g/L (Thrips [12]; [23]): 34.3%
mortality at 1 mL or g/L (Thrips [12]; [24]): 42.5%
mortality at 1 mL or g/L (Aphid [13]; [23]): 47.1%
mortality at 1 mL or g/L (Aphid [13]; [24]): 55%

CC1CCC(C(C)C)C(O)C1 (centres unmarked) [Menthol]
Mean colony Diameter (mm) (Alternaria alternata [1]): 52.00 mm
inhibition of growth at 1 mL or g/L (Alternaria alternata [1]): 40.9%
% Disease reduction over Control (Alternaria alternata [2]): 56.20%
Plant Height 5th Day (tomato seedlings): 6.78 cm
Stem Girth 5th Day (tomato seedlings): 1.48 mm
Plant Height 10th Day (tomato seedlings): 7.18 cm
Stem Girth 10th Day (tomato seedlings): 2.19 mm
Plant Height % Increase over pre on 10th Day (tomato seedlings): 27.30%
Stem Girth % Increase over pre on 10th Day (tomato seedlings): 54.01%
CCI 5th Day (tomato seedlings): 13.48
CCI % Increase over pre on 10th Day (tomato seedlings): 27.44%
Root Length (cm) 10th Day (tomato seedlings): 3.93 cm
CCI 10th Day (tomato seedlings): 14.35
Root Length % Increase over control (tomato seedlings): 18.18%
CCI 5th Day (chili seedlings; [25]): 10.24
Plant Height (cm) 5th Day (chili seedlings; [25]): 6.48 cm
CCI % Increase over pre on 10th Day (chili seedlings; [19]): 44.78%
Plant Height % Increase over pre on 10th Day (chili seedlings; [19]): 45.21%
Root Lenght (cm) 10th Day (chili seedlings; [19]): 3.02 cm
Stem Girth % Increase over pre on 10th Day (chili seedlings; [19]): 42.37%
CCI 10th Day (chili seedlings; [26]): 13.87
Plant Height (cm) 10th Day (chili seedlings; [26]): 6.52 cm
Root Lenght % Increase over control (chili seedlings; chili seedlings, dose 1 ml/gm/lit, 10th day, vs water control): 10.37%
Total No. of dead insect at 48 Hrs. (Aphid [3]; Dose 1 ml/gm/lit., 10 insects/treatment, 4 replications, cotton leaves): 7.00
% Corrected Mortality at 48 Hrs. (Aphid [3]; Dose 1 ml/gm/lit., 48 hrs): 65.71%
% Mortality at 48 Hrs. (Aphid [3]; Dose 1 ml/gm/lit., 48 hrs): 70.00%
Total No. of dead insect at 48 Hrs. (Mite [14]; 10 insects/treatment, 4 replications, okra leaves): 4.50
% Corrected Mortality at 48 Hrs. (Mite [14]; 48 hrs): 40.54%
% Mortality at 48 Hrs. (Mite [14]; 48 hrs): 45.00%
Total No. of dead insect at 48 Hrs. (Mealy Bug [4]; Mealy Bug on cotton leaves, dose 1 ml/gm/lit., 10 insects/treatment, 4 replications, 48 Hrs.): 6.50
% Mortality at 48 Hrs. (Mealy Bug [4]; Mealy Bug on cotton leaves, dose 1 ml/gm/lit., 48 Hrs.): 65.00%
% Corrected Mortality at 48 Hrs. (Mealy Bug [4]; Mealy Bug on cotton leaves, dose 1 ml/gm/lit., 48 Hrs., corrected for water control): 63.16%
Total No. of dead insect at 72 Hrs. (Helicoverpa armigera [5]; Helicoverpa armigera on okra fruits, dose 1 ml/gm/lit., 10 insects/treatment, 4 replications, 72 Hrs.): 6.00
% Mortality at 72 Hrs. (Helicoverpa armigera [5]; Helicoverpa armigera on okra fruits, dose 1 ml/gm/lit., 72 Hrs.): 60.00%
% Corrected Mortality at 72 Hrs. (Helicoverpa armigera [5]; Helicoverpa armigera on okra fruits, dose 1 ml/gm/lit., 72 Hrs., corrected for water control): 60.00%
Total No. of dead insect at 72 Hrs. (Spodoptera litura [6]; Spodoptera litura on castor leaves, dose 1 ml/gm/lit., 10 insects/treatment, 72 hrs after application): 2.75
Total No. of dead insect at 48 Hrs. (Thrips [15]): 7.50
Total No. of dead insect at 48 Hrs. (Aphid [16]): 75.00
% Mortality at 48 Hrs. (Mite [17]; 48 hrs after application): 42.50%
Total No. of dead insect at 48 Hrs. (Mite [17]; 48 hrs after application): 42.50
% Corrected Mortality at 48 Hrs. (Mite [17]; 48 hrs, corrected for water control): 39.47%
% Mortality at 48 Hrs. (Mealy Bug [7]; [27]): 67.50%
Total No. of dead insect at 48 Hrs. (Mealy Bug [7]; [27]): 67.50
% Corrected Mortality at 48 Hrs. (Mealy Bug [7]; mealy bug on cotton plants, green house, dose 1 ml/gm/lit. spray, 48 hrs, corrected for water control): 63.89%
% Mortality at 72 Hrs. (Helicoverpa armigera [18]; 72 hrs after application): 55.00%
% Corrected Mortality at 72 Hrs. (Helicoverpa armigera [18]; 72 hrs, corrected for water control): 55.00%
% Mortality at 48 Hrs. (Thrips [9]; [28]): 72.50%
Total No. of dead insect at 48 Hrs. (Thrips [9]; [28]): 72.50
% Corrected Mortality at 48 Hrs. (Thrips [9]; thrips on cotton plants, greenhouse, dose 1 ml/gm/lit. spray, 48 hrs, corrected for water control): 69.44%
Acaricidal Activity - Mode of action [10, 20]: Causes mortality & reduction
Antifungal Activity - Mode of action [10, 20]: Inhibits fungal growth
Antioxidant Activity - Mode of action [10, 20]: Possesses antioxidant
Bactericidal Activity - Mode of action [10, 20]: Menthol showed
Insecticidal Activities - Mode of action [10, 20]: Lower larval weight, reduced
mortality at 1 mL or g/L (Spodoptera litura [11]; [21]): 23.7%
mortality at 1 mL or g/L (Spodoptera litura [11]; [22]): 27.5%
mortality at 1 mL or g/L (Thrips [12]; [23]): 71.4%
mortality at 1 mL or g/L (Thrips [12]; [24]): 75%
mortality at 1 mL or g/L (Aphid [13]; [23]): 70.6%
mortality at 1 mL or g/L (Aphid [13]; [24]): 75%
